Measured values published in ChEMBL document CHEMBL4342412, “How To Design Selective Ligands for Highly Conserved Binding Sites: A Case Study Using N-Myristoyltransferases as a Model System” (J Med Chem, 2020).
pKi: −log10 of the molar value. The source made the active and inactive calls. No cut-off for these calls is given here.

Target: T1, Glycylpeptide N-tetradecanoyltransferase (Leishmania major) (UniProt Q4Q5S8)
T1 sequence (whole entry): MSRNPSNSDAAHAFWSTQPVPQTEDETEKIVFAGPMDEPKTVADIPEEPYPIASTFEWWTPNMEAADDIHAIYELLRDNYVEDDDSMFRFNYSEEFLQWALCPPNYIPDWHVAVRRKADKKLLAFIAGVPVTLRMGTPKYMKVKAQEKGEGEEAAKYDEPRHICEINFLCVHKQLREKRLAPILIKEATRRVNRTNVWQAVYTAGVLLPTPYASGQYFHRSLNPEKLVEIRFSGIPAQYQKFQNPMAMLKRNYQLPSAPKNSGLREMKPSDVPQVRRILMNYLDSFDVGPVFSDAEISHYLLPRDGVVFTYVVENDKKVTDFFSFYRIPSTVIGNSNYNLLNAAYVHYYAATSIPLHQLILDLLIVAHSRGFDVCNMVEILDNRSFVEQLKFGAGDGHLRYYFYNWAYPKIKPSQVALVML
Assay: not given
Conditions: not given

In the case of Cc1cncn1C(C)C(=O)NCc1cccnc1C1CCCN(C)CC1 (centres undefined), the inhibition was “Dose-dependent effect”.
In the case of COc1ccccc1-n1cc(-c2ccnc(NCCC3CCCN3C)n2)cn1 (centres undefined), the inhibition was “Dose-dependent effect”.
For COc1cccc(-n2cc(-c3ccnc(NCCC4CCCN4C)n3)cn2)c1 (centres undefined), the inhibition was “Dose-dependent effect”.

Target: T2, Glycylpeptide N-tetradecanoyltransferase (Leishmania major, UniProt Q4Q5S8)
T2 sequence (Q4Q5S8 whole entry): T1 sequence (whole entry)
Assay: not given
Conditions: not given

Point of comparison: Cc1cncn1C(C)C(=O)NCc1cccnc1C1CCCN(C)CC1 (centres undefined), pKi 7.28. Against it:
- Cc1nn(C)c(C)c1NS(=O)(=O)c1c(Cl)cc(-c2ccnc(N3CCN(C)CC3)c2)cc1Cl — 1.57 log units higher, 8.85
- Cc1nn(C)c(C)c1Cc1nnc(-c2cc(Cl)ccc2OC2CCNCC2)o1 — 0.33 log units higher, 7.61
- N[C@@H](CC(=O)N1C[C@H](CO)[C@@H](c2ccc(Cl)cc2)C1)Cc1ccc(Cl)cc1 — 0.73 log units lower, 6.55
- Cc1nn(C)c(C)c1N(C)S(=O)(=O)c1c(Cl)cc(CCCN2CCNCC2)cc1Cl — 0.42 log units higher, 7.70
- Cc1nn(C)c(C)c1N(C)S(=O)(=O)c1c(Cl)cc(CCCN2CCN3CCC[C@@H]3C2)cc1Cl — 1.42 log units higher, 8.70
- COc1ccccc1-n1cc(-c2ccnc(NCCC3CCCN3C)n2)cn1 (centres undefined) — 0.43 log units higher, 7.71
- O=C(Cc1ccc(F)cc1)Nc1ccc2[nH]cc(C3CCNCC3)c2c1 — 1.27 log units lower, 6.01
- COc1cccc(-n2cc(-c3ccnc(NCCC4CCCN4C)n3)cn2)c1 (centres undefined) — 0.86 log units higher, 8.14
- COc1cccc(Cc2noc(-c3ccccc3OC3CCNCC3)n2)c1 — within 0.2 log units, 7.15

Target: T3, Glycylpeptide N-tetradecanoyltransferase 1 (Homo sapiens, UniProt P30419)
T3 sequence (P30419 whole entry): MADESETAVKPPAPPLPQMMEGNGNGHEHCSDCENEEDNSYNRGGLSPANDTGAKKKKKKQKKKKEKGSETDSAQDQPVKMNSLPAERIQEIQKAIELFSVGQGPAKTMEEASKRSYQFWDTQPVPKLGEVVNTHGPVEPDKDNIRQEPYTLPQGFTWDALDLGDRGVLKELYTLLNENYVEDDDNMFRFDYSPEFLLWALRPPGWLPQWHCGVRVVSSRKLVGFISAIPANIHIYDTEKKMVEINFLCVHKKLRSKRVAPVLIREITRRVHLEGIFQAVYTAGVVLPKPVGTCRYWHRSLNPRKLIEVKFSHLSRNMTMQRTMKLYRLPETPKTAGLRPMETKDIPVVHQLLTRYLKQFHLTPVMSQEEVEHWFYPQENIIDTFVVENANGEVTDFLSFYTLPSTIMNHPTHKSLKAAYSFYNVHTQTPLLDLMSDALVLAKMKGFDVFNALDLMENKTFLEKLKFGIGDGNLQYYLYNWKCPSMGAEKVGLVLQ
Assay: not given
Conditions: not given

Point of comparison: N[C@@H](CC(=O)N1C[C@H](CO)[C@@H](c2ccc(Cl)cc2)C1)Cc1ccc(Cl)cc1, pKi 5.54. Against it:
- COc1ccccc1-n1cc(-c2ccnc(NCCC3CCCN3C)n2)cn1 (centres undefined) — not separable, < 7.40
- COc1cccc(Cc2noc(-c3ccccc3OC3CCNCC3)n2)c1 — within 0.2 log units, 5.48

Target: Glycylpeptide N-tetradecanoyltransferase 1 (Homo sapiens, UniProt P30419, L495M/N473H/Q496L)
Assay: not given
Conditions: not given

Sequence of Glycylpeptide N-tetradecanoyltransferase 1 (Homo sapiens, UniProt P30419, L495M/N473H/Q496L) (P30419 whole entry N473H/L495M/Q496L): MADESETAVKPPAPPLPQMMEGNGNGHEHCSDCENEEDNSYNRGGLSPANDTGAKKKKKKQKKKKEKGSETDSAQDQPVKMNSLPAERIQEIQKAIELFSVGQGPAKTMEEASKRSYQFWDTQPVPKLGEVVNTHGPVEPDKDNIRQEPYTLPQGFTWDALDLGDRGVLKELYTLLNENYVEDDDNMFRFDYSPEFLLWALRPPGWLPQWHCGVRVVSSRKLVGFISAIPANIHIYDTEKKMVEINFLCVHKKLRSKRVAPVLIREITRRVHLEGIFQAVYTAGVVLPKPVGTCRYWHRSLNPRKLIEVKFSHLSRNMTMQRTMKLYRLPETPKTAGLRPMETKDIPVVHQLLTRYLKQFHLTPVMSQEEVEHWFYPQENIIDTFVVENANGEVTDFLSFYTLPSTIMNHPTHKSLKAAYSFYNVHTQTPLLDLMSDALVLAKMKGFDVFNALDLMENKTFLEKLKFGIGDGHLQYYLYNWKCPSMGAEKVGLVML

Point of comparison: COc1cccc(Cc2noc(-c3ccccc3OC3CCNCC3)n2)c1, pKi 5.68. Against it:
- N[C@@H](CC(=O)N1C[C@H](CO)[C@@H](c2ccc(Cl)cc2)C1)Cc1ccc(Cl)cc1 — 0.70 log units higher, 6.38

Target: Glycylpeptide N-tetradecanoyltransferase (Leishmania major, UniProt Q4Q5S8, H398N)
Assay: Inhibition of Leishmania major NMT H398N mutant expressed in Escherichia coli Rosetta-2 cells using GSNKSKPK as substrate in presence of MyrCoA after 30 mins by CPM dye based fluorescence assay
Conditions: not given

Sequence of Glycylpeptide N-tetradecanoyltransferase (Leishmania major, UniProt Q4Q5S8, H398N) (Q4Q5S8 whole entry H398N): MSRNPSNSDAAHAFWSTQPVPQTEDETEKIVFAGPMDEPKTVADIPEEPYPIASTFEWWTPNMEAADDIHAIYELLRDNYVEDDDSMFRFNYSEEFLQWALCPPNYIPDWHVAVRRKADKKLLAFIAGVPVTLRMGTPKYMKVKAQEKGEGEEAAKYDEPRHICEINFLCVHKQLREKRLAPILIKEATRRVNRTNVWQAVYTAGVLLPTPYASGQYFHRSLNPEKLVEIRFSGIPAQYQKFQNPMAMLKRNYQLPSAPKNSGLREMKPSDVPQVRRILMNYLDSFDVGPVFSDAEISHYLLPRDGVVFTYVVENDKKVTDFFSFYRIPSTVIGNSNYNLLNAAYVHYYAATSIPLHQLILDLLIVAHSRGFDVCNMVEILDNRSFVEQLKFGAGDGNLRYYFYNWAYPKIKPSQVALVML

Point of comparison: Cc1nn(C)c(C)c1NS(=O)(=O)c1c(Cl)cc(-c2ccnc(N3CCN(C)CC3)c2)cc1Cl, pKi 8.07. Against it:
- Cc1nn(C)c(C)c1N(C)S(=O)(=O)c1c(Cl)cc(CCCN2CCNCC2)cc1Cl — 0.73 log units higher, 8.80
- Cc1nn(C)c(C)c1N(C)S(=O)(=O)c1c(Cl)cc(CCCN2CCN3CCC[C@@H]3C2)cc1Cl — 0.82 log units higher, 8.89
- O=C(Cc1ccc(F)cc1)Nc1ccc2[nH]cc(C3CCNCC3)c2c1 — 1.79 log units lower, 6.28

Target: Glycylpeptide N-tetradecanoyltransferase (Leishmania major, UniProt Q4Q5S8, L421Q)
Assay: Inhibition of Leishmania major NMT L421Q mutant expressed in Escherichia coli Rosetta-2 cells using GSNKSKPK as substrate in presence of MyrCoA after 30 mins by CPM dye based fluorescence assay
Conditions: not given

Sequence of Glycylpeptide N-tetradecanoyltransferase (Leishmania major, UniProt Q4Q5S8, L421Q) (Q4Q5S8 whole entry L421Q): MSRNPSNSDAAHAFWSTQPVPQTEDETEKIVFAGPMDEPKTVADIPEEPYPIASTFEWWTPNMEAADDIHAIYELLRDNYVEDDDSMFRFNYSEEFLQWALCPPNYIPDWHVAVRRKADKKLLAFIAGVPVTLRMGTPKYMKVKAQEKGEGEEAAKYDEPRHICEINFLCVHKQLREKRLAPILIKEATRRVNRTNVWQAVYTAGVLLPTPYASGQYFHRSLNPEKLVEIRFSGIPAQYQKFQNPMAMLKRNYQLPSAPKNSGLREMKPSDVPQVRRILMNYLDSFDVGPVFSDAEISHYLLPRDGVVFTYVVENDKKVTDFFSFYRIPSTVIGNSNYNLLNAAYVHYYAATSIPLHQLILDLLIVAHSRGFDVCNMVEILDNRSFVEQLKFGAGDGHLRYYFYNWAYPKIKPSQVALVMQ

Point of comparison: Cc1nn(C)c(C)c1N(C)S(=O)(=O)c1c(Cl)cc(CCCN2CCN3CCC[C@@H]3C2)cc1Cl, pKi 7.44. Against it:
- Cc1nn(C)c(C)c1NS(=O)(=O)c1c(Cl)cc(-c2ccnc(N3CCN(C)CC3)c2)cc1Cl — 0.78 log units higher, 8.22
- Cc1nn(C)c(C)c1N(C)S(=O)(=O)c1c(Cl)cc(CCCN2CCNCC2)cc1Cl — 1.20 log units higher, 8.64
- O=C(Cc1ccc(F)cc1)Nc1ccc2[nH]cc(C3CCNCC3)c2c1 — 1.85 log units lower, 5.59

Target: T4, Glycylpeptide N-tetradecanoyltransferase 1 (Homo sapiens, UniProt P30419, A452M/L453V/L462V/L495M/N473H/Q496L/R295Q/W297F)
Assay: not given
Conditions: not given

T4 sequence (P30419 whole entry R295Q/W297F/A452M/L453V/L462V/N473H/L495M/Q496L): as the sequence (P30419 whole entry N473H/L495M/Q496L) above, with R295Q, W297F, A452M, L453V, L462V counted along it

Point of comparison: COc1ccccc1-n1cc(-c2ccnc(NCCC3CCCN3C)n2)cn1 (centres undefined), pKi 4.78. Against it:
- N[C@@H](CC(=O)N1C[C@H](CO)[C@@H](c2ccc(Cl)cc2)C1)Cc1ccc(Cl)cc1 — 2.75 log units higher, 7.53
- COc1cccc(Cc2noc(-c3ccccc3OC3CCNCC3)n2)c1 — 2.70 log units higher, 7.48

Target: T1, Glycylpeptide N-tetradecanoyltransferase (Leishmania major)
Assay: not given
Conditions: 500 uM

Point of comparison: COc1ccccc1-n1cc(-c2ccnc(NCCC3CCCN3C)n2)cn1 (centres undefined), inhibition 91%. Against it:
- Cc1cncn1C(C)C(=O)NCc1cccnc1C1CCCN(C)CC1 (centres undefined) — lower, 90%
- COc1cccc(-n2cc(-c3ccnc(NCCC4CCCN4C)n3)cn2)c1 (centres undefined) — higher, 97%

Target: T5, NMT1 (glycylpeptide N-tetradecanoyltransferase 1) (Homo sapiens, UniProt P30419)
T5 sequence (P30419 whole entry): T3 sequence (P30419 whole entry)
Assay: not given
Conditions: probe GSNKSKPK peptide

For COc1ccccc1-n1cc(-c2ccnc(NCCC3CCCN3C)n2)cn1 (centres undefined), the inhibition at 0.5 h, 500 µM was 59%.

Target: T4, Glycylpeptide N-tetradecanoyltransferase 1
Assay: not given
Conditions: 0.5 h

Work on COc1ccccc1-n1cc(-c2ccnc(NCCC3CCCN3C)n2)cn1 (centres undefined) yielded an inhibition at 500 µM of 98%.

Target: Genome polyprotein (dengue virus type 2) (UniProt P29990)
Assay: Inhibition of Dengue virus 2 NS2B-NS3 protease at 100 uM
Conditions: not given

In the case of Cc1cncn1C(C)C(=O)NCc1cccnc1C1CCCN(C)CC1 (centres undefined), the inhibition was “inactive”.
COc1ccccc1-n1cc(-c2ccnc(NCCC3CCCN3C)n2)cn1 (centres undefined) was tested, and the inhibition was “inactive”.
With COc1cccc(-n2cc(-c3ccnc(NCCC4CCCN4C)n3)cn2)c1 (centres undefined) the inhibition was “inactive”.

Tested on: human NMT1 versus Leishmania major NMT
Assay: in vitro
Conditions: human (numerator) and Leishmania major (denominator)
Description: Selectivity index, ratio of Ki for inhibition of N-terminal TEV cleavage site-fused His6 tagged human NMT1 (115 to 496 residues) to Ki for inhibition of N-terminal TEV cleavage site-fused His6 tagged Leishmania major NMT (11 to 421 residues)

Point of comparison: N[C@@H](CC(=O)N1C[C@H](CO)[C@@H](c2ccc(Cl)cc2)C1)Cc1ccc(Cl)cc1, selectivity ratio 10.5. Against it:
- COc1cccc(Cc2noc(-c3ccccc3OC3CCNCC3)n2)c1 — higher, 47.8
